≈ marks a conversion by molar mass, not a printed value. Like-named read-outs stand apart in the source and are kept apart here.
Assays:
[1] = tested on: P. falciparum TM90-2CB strain; assay: Antiplasmodial activity against resistant P. falciparum TM90-2CB; type: cell-based; conditions: Plasmodium falciparum; resistant strain TM90-2CB; read-out: IC50 ± SD, TM90-2CB
P. falciparum 3D7 clone = assay: Ex vivo schizont maturation assay, 3D7 laboratory strain control; type: cell-based; conditions: Plasmodium falciparum, ex vivo assay conditions
[2] = tested on: P. falciparum field isolates from Brazil; assay: Ex vivo drug susceptibility of P. falciparum field isolates; type: cell-based, Plasmodium falciparum
[3] = tested on: female P. falciparum gametocytes; assay: P. falciparum dual gamete formation assay (Pf DGFA), female gametocytes; type: cell-based; conditions: Plasmodium falciparum, read-out: inhibition against female gametocytes
P. falciparum 7G8 strain = assay: Antiplasmodial activity against resistant P. falciparum 7G8; type: cell-based; conditions: Plasmodium falciparum; resistant strain 7G8; read-out: IC50 ± SD, 7G8
[4] = Human liver microsome stability; type: in vitro ADME; conditions: human, pooled human liver microsomes, human microsomal intrinsic clearance; read-out: hMics, human microsome Clint
Protocol: A solution of the test compounds in phosphate buffer solution (1 μM) was incubated in pooled human or mouse liver microsomes (0.5 mg/mL) for 0, 5, 20, 30, 45, and 60 min at 37 °C in the presence and absence of an NADPH regeneration system (NRS). The tests were conducted by […], India. The reaction was terminated with the addition of ice-cold acetonitrile, containing a […] standard, at designated time points. The sample was centrifuged (4200g) for 20 min at 20 °C and the supernatant was diluted by half in water and then analyzed by LC-MS/MS. The % parent compound remaining, half-life (t 1/2) and clearance (CLint) were calculated using standard methodology. The experiment was carried out in duplicate. Verapamil, diltiazem, phenacetin, and imipramine were used as reference standards.

[5] = eLogD at pH 7.4, miniaturized shake flask method; type: physicochemical; conditions: 1-octanol/PBS (1:1, v/v), pH 7.4, pH 7.4, miniaturized shake flask method
Protocol: eLogD at pH 7.4 was determined using a miniaturized shake flask method. A solution of a presaturated mixture of 1-octanol and phosphate-buffered saline (PBS) (1:1, v/v) and the test compound (75 μM) was incubated at 25 °C with constant shaking (850 rpm) for 2h. After incubation, the organic and aqueous phases were separated, and samples of each phase were transferred to a plate for dilution. […] The samples were quantitated using LC-MS/MS. The experiment was carried out in duplicate. Propranolol, Amitriptyline, and Midazolam were used as reference standards.

[6] = tested on: P. falciparum RF12 strain; assay: Antiplasmodial activity against resistant P. falciparum RF12; type: cell-based; conditions: Plasmodium falciparum, read-out: IC50 ± SD, RF12
P. falciparum Dd2 strain = assay: Antiplasmodial activity against resistant P. falciparum Dd2; type: cell-based; conditions: Plasmodium falciparum
[7] = tested on: P. falciparum 3D7 strain (Pf3D7); assay: Antiplasmodial activity against P. falciparum 3D7 blood-stage parasites (SYBR Green, 72 h); type: cell-based, Plasmodium falciparum; conditions: Plasmodium falciparum
P. falciparum K1 strain = assay: Antiplasmodial activity against resistant P. falciparum K1; type: cell-based; conditions: Plasmodium falciparum
[8] = Resazurin assay for cytotoxicity in HepG2 cells; type: cell-based, human; conditions: human, HepG2 cells; HepG2 cell line, 72 h, resazurin
Protocol: HepG2 cells were trypsinized, counted, and distributed in a 96-well plate at a density of 30,000 cells per well (180 μL). The plate was incubated at 37 °C and 5% CO2 for 24 h. Following incubation, 20 μL of serial dilutions of the tested compounds were added to the wells, with concentrations ranging from 30 to 0.47 μM. The plate was incubated for an additional 72 h at 37 °C and 5% CO2. Untreated cells served as positive controls, while wells containing only medium were used as negative controls. Postincubation, microscopy was employed to determine the highest compound concentration for treatment results. […] Concentration–response curves were generated, and half-maximal inhibitory concentration (CC50) values were determined using nonlinear regression analysis.

[9] = Kinetic solubility at pH 7.4; type: physicochemical; conditions: phosphate-buffered saline, 25 °C, pH 7.4, aqueous buffer, kinetic from dmso stock; read-out: Kinetic solubility (Sol)
Protocol: Kinetic solubility assay was performed using UV–vis detection. […] The samples were filtered using a multiscreen solubility filter plate. The filtrate was diluted by 50% with MeCN. A five-point linearity curve was prepared in PBS/MeCN (1:1, v/v) at 200, 150, 75, 25, and 2.5 μM. Blank, linearity, and test samples (n = 2) were transferred to a UV-readable plate, and the plate was scanned for absorbance. Best-fit calibration curves were constructed using the calibration standards and used to determine the test sample solubility. The experiment was carried out in duplicate. Diethylstilbestrol, Haloperidol, and Diclofenac Sodium were used as reference standards.

[10] = tested on: P. vivax field isolates from Brazil; assay: Ex vivo drug susceptibility of P. vivax field isolates; type: cell-based; conditions: Plasmodium vivax, ex vivo
[11] = tested on: P. falciparum (3D7 strain) digestive vacuole; assay: Digestive vacuole homeostasis, acridine orange fluorescence; type: cell-based, Plasmodium falciparum; conditions: 10 μM, 3 min treatment, isolated parasites
Protocol: The sample was incubated for 40 min at 37 °C. […] Fluorescence was measured in a Hitachi F-7000 fluorimeter (Tokyo, Japan) by continuous measurement of the fluorescence (λex = 488 nm; λem = 560 nm) at 37 °C. Experiments were performed in triplicate.

[12] = tested on: P. falciparum Dd2 (chloroquine resistance); assay: Effect of verapamil on inhibitory activity in P. falciparum Dd2; type: cell-based; conditions: Plasmodium falciparum; Dd2, absence of verapamil; read-out: IC50^Dd2 (without VP)
[13] = tested on: P. falciparum 3D7 (chloroquine-sensitive); assay: Effect of verapamil on inhibitory activity in P. falciparum 3D7; type: cell-based; conditions: Plasmodium falciparum
[14] = tested on: male P. falciparum gametocytes; assay: P. falciparum dual gamete formation assay (Pf DGFA), male gametocytes; type: cell-based; conditions: Plasmodium falciparum, read-out: inhibition against male gametocytes
Rat hepatocyte stability = type: in vitro ADME; conditions: rat hepatocyte stability
Protocol: The reaction was terminated with the addition of ice-cold MeCN at designated time points. The samples were then centrifuged (4200 rpm) for 20 min at 20 °C, and the supernatant was half diluted in water and then analyzed using LCMS/MS. The % parent compound remaining, half-life (t 1/2), and clearance (CLint) were calculated using standard methodology. The experiment was carried out in duplicate. Diltiazem, 7-Ethoxy Coumarin, Propranolol, and Midazolam were used as reference standards.

[15] = tested on: synchronized P. falciparum parasites (3D7 strain); assay: P. falciparum asexual blood stage-specificity assay (8 h exposures); type: cell-based, Plasmodium falciparum
[16] = tested on: P. falciparum NF54 strain; assay: Antiplasmodial activity against P. falciparum NF54 (SYBR Green, 72 h); type: cell-based, Plasmodium falciparum; conditions: Plasmodium falciparum, NF54, drug-sensitive NF54, strain panel; read-out: IC50 ± SD, NF54

- IC50 [1]: 2800 ± 500 nM
- EC50 (P. falciparum 3D7 clone; 3D7, read-out: EC50 against the P. falciparum 3D7 clone): 363 nM
- IC50 (P. falciparum 3D7 clone; 3D7 control, read-out: P. falciparum 3D7 IC50): 363 nM
- IC50 ([2]; Plasmodium falciparum, 7 clinical isolates, ex vivo, read-out: median IC50 (range), P. falciparum (7)): > 10 µM
- IC50 (P. falciparum 7G8 strain): 1800 ± 300 nM
- microsomal CLint at 1 μM [4]: 11 µL/min/mg
- logD at 2 h [5]: 1.1
- IC50 [6]: 2000 ± 300 nM
- IC50 (P. falciparum Dd2 strain; 3D7 / DD2, resistant Dd2, in parallel with 3D7, read-out: IC50^Dd2 ± SD): > 10000 nM
- IC50 (P. falciparum Dd2 strain; resistant strain Dd2, strain panel, read-out: IC50 ± SD, Dd2): 2600 ± 400 nM
- IC50 ([7]; 3D7, 72 h, 3D7 strain, 72 h, SYBR Green, read-out: Pf3D7-IC50): 400 ± 100 nM
- IC50 ([7]; 3D7, drug-sensitive 3D7, strain panel, read-out: IC50 ± SD, 3D7): 400 ± 100 nM
- IC50 ([7]; 3D7 / DD2, sensitive 3D7, in parallel with K1 and Dd2, read-out: IC50^3D7 ± SD): 400 ± 200 nM
- IC50 (P. falciparum K1 strain; 3D7 / K1, resistant K1, in parallel with 3D7, read-out: IC50^K1 ± SD): 4.5 ± 0.2 µM
- IC50 (P. falciparum K1 strain; resistant strain K1, strain panel, read-out: IC50 ± SD, K1): 7.3 ± 0.2 µM
- solubility kinetic at 2 h [9]: 195 µM (≈ 78.5 µg/mL)
- IC50 ([10]; 9 clinical isolates, read-out: median IC50 (range), P. vivax (9)): 698 nM
- EC50 ([10]; read-out: median EC50 against P. vivax field isolates): 698 nM
- EC50 ([10]; read-out: range of EC50 across individual P. vivax isolates): 636 to 910 nM
- IC50 [12]: 4.03 µM
- IC50 ([13]; 3D7, verapamil experiment, read-out: IC50 in 3D7 strain): ~200 nM
- IC50 ([13]; read-out: IC50^3D7 (10 μM VP), 3D7, presence of 10 μM verapamil): 460 nM
- IC50 ([13]; 3D7, absence of verapamil, read-out: IC50^3D7 (without VP)): 196 nM
- R Heps (Clint) (Rat hepatocyte stability): 2.6 μL/min/10^6
- IC50 [16]: 370 ± 60 nM
SMILES: O=C(c1cc2cc(C(F)(F)F)ccc2[nH]1)N(Cc1cccnc1)CC1CCNC1 (stereo not shown) [Compound 6f, N-(3-Pyridylmethyl)-N-(pyrrolidin-3-ylmethyl)-5-(trifluoromethyl)-1H-indole-2-carboxamide]
- activity against P. falciparum field isolates ([2]; concentration of 10 μM): inactive
- inhibition at 1 µM [3]: 7%
- CC50 at 72 h [8]: > 30 µM
- effect on digestive vacuole H+ homeostasis (acridine orange fluorescence) [11]: interferes with proton (H^+) homeostasis
- inhibition at 1 µM [14]: 28%
- timing of peak activity (lowest IC50^8h) in asexual blood stages [15]: increased potency on the early ring forms

From paper PMC12531871, “Indole-2-carboxamides Optimization for Antiplasmodial Activity” (ACS Bio & Med Chem Au, 2025)
